Test results: patent US6753295B1, “Plant activator, process for producing the same, activation method, activity promoter and method for applying the promoter” (Hokkaido Green Kosan, Incorporated, priority 1999, dated 2004)

Tests used:
Type in all cases: cell-based
E. coli NIHJ JC-2 = experiment: MIC, agar plate dilution method; conditions: E.coliNIHJ JC-2
Method: (§1) 22 strains in total, that is, 1 strain of S. aureus 209P JC-1, 20 strains of 1G-stored, clinically separated Staphylococcus (10 strains each of MSSA and MRSA), and 1 strain of E. coli NIHJ JC-2 as the standard strain.
(§2) MW:168, methicilin (DMPPC, staphcililn for injection, Lot. No. FSB […], Banyu Pharmaceutical Co., Ltd.), vancomycin (VCM, Lot. No. 41H0457, 10750, SIGMA).
(§3) Mueller-Hinton agar (MIA, Difco) was used for measurement of antimicrobial properties, and Mueller Hinton broth (MHB, Difco) was used for pre-cultivation.
(§4) The minimum inhibitory concentration (MIC) of each chemical against the used strain was determined according to an agar plate dilution method in accordance with the standard methods of Japanese Society of Chemotherapy. The strain was sprayed onto MHA and cultured at 37° C. overnight, and the resultant colonies were cultured in MHB at 37° C. overnight, and its microbial liquid was diluted 100-fold (1000-fold dilution for E. coli) and used as inoculation liquid.

S. aureus 209P JC-1 = experiment: MIC, agar plate dilution method; conditions: S.aureu209P JC-1
Method: as §1, §2, §3, §4

[1] = system: clinically separated Staphylococcus (MSSA and MRSA); experiment: MIC, agar plate dilution method
Method: as §1, §2, §3, §4

Erwinia sp. = experiment: paper disk bioassay of the purified product against bacteria; conditions: 1000, 500 and 250 ppm; 37° C., 18 hours
Method: (§5) An agar medium containing a test bacterium was placed in a Petri dish and fixed therein. A paper disk containing the sample was placed thereon and incubated at 37° C. for 18 hours, and formation of a circle of inhibited growth was confirmed.
(§6) The following 4 strains were used: Staphylococcus aureus 209P, Pseudomonas syringal, Xanthomonoas Campestris pv. citri, and Erwinia sp.
(§7) For pre-culture, a bouillon medium (DIFCO) was used, and after overnight cultivation, the cultivation medium was diluted at ×10^2 and mixed with 0.5% upper-layer medium. As the medium for measuring the bacterium, Mycin agar (Mikumi Kagaku) was used.
(§8) Upper layer−1.5% Mycin agar (Mikuni Kagaku)+0.5% Mycin agar mixed with the overnight cultivation (diluted at ×10^2) in 2% bouillon medium (DIFCO)
(§9) Lower layer−2.0% Mycin agar (Mikuni Kagaku)
(§10) A paper disk was impregnated with the isolated and purified product prepared at 1000 ppm, 500 ppm and 250 ppm respectively was air-dried, placed on the Petri dish and incubated at 37° C. for 18 hours, and whether a circle of inhibited growth was formed or not was observed.

Pseudomonas syringal = experiment: as above; conditions: 1000, 500 and 250 ppm; 37° C., 18 hours
Method: as §5, §6, §7, §8, §9, §10

[2] = system: Staphylococcus aureus 209P; experiment: as above; conditions: 1000, 500 and 250 ppm; 37° C., 18 hours
Method: as §5, §6, §7, §8, §9, §10

[3] = system: Xanthomonoas Campestris pv. citri; experiment: as above; conditions: 1000, 500 and 250 ppm; 37° C., 18 hours
Method: as §5, §6, §7, §8, §9, §10

Compound | MIC (E. coli NIHJ JC-2) [micro gram/ml] | MIC (S. aureus 209P JC-1) [micro gram/ml] | MIC ([1]; MRSA TH948) [micro gram/ml] | MIC ([1]; MRSA TH949) [micro gram/ml] | MIC ([1]; MRSA TH950) [micro gram/ml] | MIC ([1]; MRSA TH951) [micro gram/ml] | MIC ([1]; MRSA TH952) [micro gram/ml] | MIC ([1]; MRSA TH953) [micro gram/ml] | MIC ([1]; MRSA TH954) [micro gram/ml] | MIC ([1]; MRSA TH955) [micro gram/ml] | MIC ([1]; MRSA TH956) [micro gram/ml] | MIC ([1]; MRSA TH957) [micro gram/ml] | MIC ([1]; MRSA TH972) [micro gram/ml] | MIC ([1]; MRSA TH973) [micro gram/ml] | MIC ([1]; MRSA TH974) [micro gram/ml] | MIC ([1]; MRSA TH975) [micro gram/ml] | MIC ([1]; MRSA TH976) [micro gram/ml] | MIC ([1]; MRSA TH1350) [micro gram/ml] | MIC ([1]; MRSA TH1351) [micro gram/ml] | MIC ([1]; MRSA TH1352) [micro gram/ml] | further results
COc1cccc(OC)c1C(=O)N[C@@H]1C(=O)N2[C@@H]1SC(C)(C)[C@@H]2C(=O)O [DMPP, methicilin] | 3.13 | 1.56 | 1.56 | 3.13 | 3.13 | 3.13 | 1.56 | 3.13 | 3.13 | 1.56 | 3.13 | 1.56 | >12.5 | >12.5 | >12.5 | >12.5 | >12.5 | 12.5 | 6.25 | >12.5 | MIC ([1]; MRSA TH1353): >12.5 micro gram/ml; MIC ([1]; MRSA TH1354): >12.5 micro gram/ml
O=C(O)/C=C/C1=CC(=O)CC1O (centres unmarked) [MW168, 3(3-hydroxy-cyclopropene 5-one-2-yl)2-propenoic acid] | >50 | >50 | >50 | >50 | >50 | >50 | >50 | >50 | >50 | >50 | >50 | >50 | >50 | >50 | >50 | >50 | >50 | >50 | >50 | >50 | circle of inhibited growth / activity against the bacteria (Erwinia sp.): no or less activity; circle of inhibited growth / activity against the bacteria (Pseudomonas syringal): no or less activity; circle of inhibited growth / activity against the bacteria [2]: no or less activity; circle of inhibited growth / activity against the bacteria [3]: no or less activity; MIC ([1]; MRSA TH1353): >50 micro gram/ml; MIC ([1]; MRSA TH1354): >50 micro gram/ml; antimicrobial properties against Staphylococcus ([1]; concentrations used 50˜0.10 micro gram/ml): no or less activity
CN[C@H](CC(C)C)C(=O)N[C@H]1C(=O)N[C@@H](CC(N)=O)C(=O)N[C@H]2C(=O)N[C@H]3C(=O)N[C@H](C(=O)N[C@H](C(=O)O)c4cc(O)cc(O)c4-c4cc3ccc4O)[C@H](O)c3ccc(c(Cl)c3)Oc3cc2cc(c3O[C@@H]2O[C@H](CO)[C@@H](O)[C@H](O)[C@H]2O[C@H]2C[C@](C)(N)[C@H](O)[C@H](C)O2)Oc2ccc(cc2Cl)[C@H]1O [VCM, vancomycin] | >6.25 | 0.78 | 0.78 | 0.78 | 0.78 | 0.78 | 0.78 | 0.78 | 0.78 | 0.78 | 0.78 | 0.78 | 0.78 | 0.78 | 0.78 | 0.78 | 0.78 | 0.78 | 0.78 | 0.78 | MIC ([1]; MRSA TH1353): 0.78 micro gram/ml; MIC ([1]; MRSA TH1354): 0.78 micro gram/ml
